One assay has as its system male rats. Put plainly: Antagonist effect vis-a-vis the diuretic activity of U-50488, action on diuresis. It is filed as in vivo, rat. The conditions noted are these: male rats fasted 16 h; product of Example 1 20 mg/kg SC, U-50488 5 mg/kg, combination 5 + 20 mg/kg; urine collected for one hour.
The next assay has as its system female mice. Put plainly: Antagonist effect vis-a-vis the analgesic activity of U-50488, hot plate test with mice. The settings on record: hot plate 56° C., product of Example 1 20 mg/kg SC, U-50488 5 mg/kg SC, combination 5 + 20. It is filed as in vivo, mouse. (In general: Thermal pain tests record how soon the animal reacts.)
The target in assay [1] is T1, kappa opiate receptor (Cavia porcellus, UniProt P41144).
T1 construct: Membrane samples prepared from the cerebellum of guinea pigs; from tissue; host or cells: guinea pig cerebellum membranes
Put plainly: Test of the bonding to the kappa opiate receptor in vitro (3H ethylketocyclazocine). It is filed as binding, guinea pig. As for the experimental part: a) Test of the bonding to the kappa opiate receptor in vitro
Membrane samples prepared from the cerebellum of guinea pigs preserved at -30° C. (optionally for about 30 days) were used.
These samples were suspended in pH 7.7 Tris buffer. Fractions of 2 ml were allocated into hemolysis tubes and 1 nM of 3H ethylketocyclazocine and the product to be studied were added. The product was first tested in triplicate at 5×10^-6 M. When the tested product displaced more than 50% of the radioactivity bonded specifically to the receptor, it was tested again according to a range of 7 doses to determine the dose which inhibited 50% of the radioactivity bonded specifically to the receptor. Thus, the 50% inhibiting concentration was determined.
The non-specific bonding was determined by the addition of product known under the name U-50 488 H (Lahti et al. 1982, Life Sci. Vol. 31, p. 2257) at 10^-5 M in triplicate. Incubation took place at 25° C. for 40 minutes, followed by returning to the water bath at 0° C. for 5 minutes, then vacuum filtering, rinsing with pH 7.7 Tris buffer, and the radioactivity was counted in the presence of a Triton scintillator. The result was expressed directly as the 50% inhibiting concentration (IC50), that is to say as the concentration of studied product, expressed in nM, necessary to displace 50% of the radioactivity specifically bonded to the studied receptor.

In another assay the target is T2, mu opiate receptor (Rattus norvegicus, UniProt P33535).
T2 construct: from the brains of rats were used; from tissue; host or cells: rat brain membranes
Put plainly: Test of bonding to the mu opiate receptor in vitro (3H DAGO). The settings on record: rat brain membranes, 1 nM 3H DAGO, 25° C. 40 minutes, pH 7.7 Tris buffer; read-out: IC50, displacement of 3H DAGO from mu opiate receptor. It is filed as binding. (In general: Loss of bound radioactivity is the signal in a displacement assay; it reports binding, not function.)

The next assay addresses T3, dopamine receptor (Rattus norvegicus, UniProt P61169).
T3 construct: prepared from the striated bodies of rats were used; from tissue; host or cells: rat striatum membranes
Put plainly: Test of bonding to the dopamine receptor in vitro (3H spiroperidol). The settings on record: rat striated bodies membranes, 0.15 nM 3H spiroperidol, pH 7.25 Krebs Tris buffer; read-out: IC50, displacement of 3H spiroperidol from dopamine receptor. It is filed as binding.

Assay [2] has as its target T1, kappa opiate receptor. Put plainly: Test for distinction between agonist and antagonist on the kappa opiate receptor (3H diprenorphine, with or without NaCl and GTP). The settings on record: for IC50: guinea pig cerebellum membranes, 0.3 nM 3H diprenorphine. It is filed as binding, guinea pig.

Molecules are shown by their SMILES.

T1 sequence (P41144 whole entry): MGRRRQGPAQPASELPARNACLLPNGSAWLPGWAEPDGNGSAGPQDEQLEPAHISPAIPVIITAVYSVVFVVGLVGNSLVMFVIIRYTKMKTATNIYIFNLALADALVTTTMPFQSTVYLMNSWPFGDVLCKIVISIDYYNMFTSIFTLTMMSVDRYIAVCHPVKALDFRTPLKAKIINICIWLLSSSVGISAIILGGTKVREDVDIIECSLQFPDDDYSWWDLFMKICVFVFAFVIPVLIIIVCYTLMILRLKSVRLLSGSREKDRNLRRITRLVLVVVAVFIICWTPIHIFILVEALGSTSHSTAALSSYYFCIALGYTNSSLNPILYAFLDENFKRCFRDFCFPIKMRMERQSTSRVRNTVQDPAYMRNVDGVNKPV
T3 sequence (P61169 whole entry): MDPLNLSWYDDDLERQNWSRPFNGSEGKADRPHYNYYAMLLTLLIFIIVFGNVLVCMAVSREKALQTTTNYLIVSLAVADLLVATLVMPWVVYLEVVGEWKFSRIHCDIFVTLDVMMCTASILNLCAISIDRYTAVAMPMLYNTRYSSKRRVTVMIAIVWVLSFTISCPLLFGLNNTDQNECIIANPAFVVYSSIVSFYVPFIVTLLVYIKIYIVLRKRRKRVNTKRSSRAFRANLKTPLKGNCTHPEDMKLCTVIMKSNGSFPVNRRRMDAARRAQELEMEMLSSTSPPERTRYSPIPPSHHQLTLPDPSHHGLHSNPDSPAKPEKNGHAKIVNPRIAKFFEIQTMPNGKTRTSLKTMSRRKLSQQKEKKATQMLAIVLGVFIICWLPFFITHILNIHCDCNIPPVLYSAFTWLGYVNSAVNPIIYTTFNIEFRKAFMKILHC
T2 sequence (P33535 whole entry): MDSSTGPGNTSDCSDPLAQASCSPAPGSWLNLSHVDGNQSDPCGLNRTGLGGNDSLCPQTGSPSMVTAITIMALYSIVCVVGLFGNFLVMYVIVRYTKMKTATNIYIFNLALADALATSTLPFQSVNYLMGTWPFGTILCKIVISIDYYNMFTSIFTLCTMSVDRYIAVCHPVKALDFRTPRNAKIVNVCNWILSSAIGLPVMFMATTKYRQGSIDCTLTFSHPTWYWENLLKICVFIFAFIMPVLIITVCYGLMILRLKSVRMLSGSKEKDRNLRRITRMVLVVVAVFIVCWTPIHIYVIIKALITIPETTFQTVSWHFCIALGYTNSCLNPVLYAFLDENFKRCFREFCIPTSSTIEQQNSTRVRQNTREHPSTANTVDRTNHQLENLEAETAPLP
Description for dopamine receptor: (optionally for about 30 days) and prepared from the striated bodies of rats were used. The samples were suspended in pH 7.25 Krebs Tris buffer. […] The product was first tested at 5×10^-6 M, in triplicate. […] Incubation took place at 27° C. for 20 minutes, followed by returning to the water bath at 0° C. for 5 minutes, then vacuum filtering, rinsing with pH 7.7 Tris buffer, and the radioactivity was counted in the presence of a Triton scintillator.

One may read the IC50 as the concentration that gives 50% inhibition. Take `CCCCCN(CCc1ccccc1)CCc1cccc(O)c1` [Product of example 1, N-pentyl-N-phenethyl-3-hydroxyphenethylamine]: in the assay on male rats, the “Volume of urine excreted in 1 hour, m ± esm” value was determined as 0.0067 ± 0.0002 L/kg. Further, the “Reaction time, m ± esm, 30 mn” value in the assay with female mice (30 minutes after injection) came out at 4.7 ± 0.6 s. Further, in the assay with female mice (initial time (0 mn)), the “Reaction time, m ± esm, 0 mn” value was 5.1 ± 0.1 s. Further, the “Affinity for kappa, mu and dopamine receptors (conclusion)” value on kappa opiate receptor [1] (conclusion from the kappa, mu and dopamine bonding tests) is “only has an affinity for the kappa opiate receptor”. For the same molecule, the IC50 at kappa opiate receptor [1] (guinea pig cerebellum membranes, 1 nM 3H ethylketocyclazocine, 25° C. 40 minutes, pH 7.7 Tris buffer, read-out: IC50, displacement of 3H ethylketocyclazocine from kappa opiate receptor) is 57 nM; at mu opiate receptor, 840 nM; at dopamine receptor, 10600 nM; at kappa opiate receptor [2] (NaCl 100 mM, GTP 50 uM, read-out: IC50 in the presence of GTP and NaCl) it was 135 nM; on kappa opiate receptor [2] (without NaCl and GTP, read-out: IC50 in the absence of GTP and NaCl), 43 nM. In addition, the “Agonist or antagonist character on the kappa receptor” value on kappa opiate receptor [2] (conclusion from IC50 with and without NaCl/GTP) was “antagonist product of the kappa receptor”.

The values are drawn from US5141962A, “Amine compounds” (Roussel Uclaf, priority 1989, dated 1992).
